This is an account of results in US8053418B2, “Anti-penicillin resistant pneumococci agent and novel 16-membered macrolide derivative” (Microbial Chemistry Research Foundation, priority 2005, dated 2011).

The test system of experiment [1] is Streptococcus pneumoniae IMC B-0919 (PRSP). Briefly: Antimicrobial activity test (MIC), clinical isolate IMC B-0919. It is filed as cell-based. The method, then: (§1) Using Streptococcus pneumoniae that include clinical isolates of PRSP, the antimicrobial activity of each of the prepared anti-PRSP agents was measured in accordance with the “determination method of minimum inhibitory concentration of drug against bacteria” of Japanese Society of Chemotherapy (for re-revised version, see Chemotherapy 29; 76, 1981).
(§2) 11 test strains of Streptococcus pneumoniae including IMC B-0919 are all clinical isolates, of which 2 strains, IMC B-0921 and IMC B-1229, are classified into penicillin susceptible Streptococcus pneumoniae (PSSP) and the remaining 9 strains are classified into penicillin-resistant Streptococcus pneumoniae (PRSP) (according to NCCLS standards).

The test system of experiment [2] is Streptococcus pneumoniae IMC B-0920 (PRSP). Put plainly: Antimicrobial activity test (MIC), clinical isolate IMC B-0920. It is filed as cell-based. The method, then:
as §1, §2

In experiment [3] the test system is Streptococcus pneumoniae IMC B-0922 (PRSP). Briefly: Antimicrobial activity test (MIC), clinical isolate IMC B-0922. In kind it is cell-based. The procedure:
as §1, §2

For experiment [4], the system named is Streptococcus pneumoniae IMC B-1231 (PRSP). Put plainly: Antimicrobial activity test (MIC), clinical isolate IMC B-1231. It is filed as cell-based. The method, then:
as §1, §2

The subject of experiment [5] is Streptococcus pneumoniae IMC B-1234 (PRSP). Put plainly: Antimicrobial activity test (MIC), clinical isolate IMC B-1234. It is filed as cell-based. The procedure:
as §1, §2

The test system of experiment [6] is Streptococcus pneumoniae IMC B-1235 (PRSP). Put plainly: Antimicrobial activity test (MIC), clinical isolate IMC B-1235. It is filed as cell-based. The procedure:
as §1, §2

Experiment [7] has as its system Streptococcus pneumoniae IMC B-1236 (PRSP). Briefly: Antimicrobial activity test (MIC), clinical isolate IMC B-1236. In kind it is cell-based. The procedure: as §1, §2
In experiment [8] the test system is general Gram-positive bacteria and Gram-negative bacteria. To be noted: Non-Patent Literatures 1 and 2, Patent Literature 1; cited from earlier work.
Experiment [9] has as its system Streptococcus pneumoniae IMC B-1232 (PRSP). Put plainly: Antimicrobial activity test (MIC), clinical isolate IMC B-1232. It is filed as cell-based. The method, then:
as §1, §2

Experiment [10] has as its system Streptococcus pneumoniae IMC B-1233 (PRSP). Put plainly: Antimicrobial activity test (MIC), clinical isolate IMC B-1233. In kind it is cell-based. The procedure: as §1, §2
Experiment [11] concerns Streptococcus pneumoniae IMC B-0921 (PSSP). Put plainly: Antimicrobial activity test (MIC), clinical isolate IMC B-0921. It is filed as cell-based. The procedure:
as §1, §2

For experiment [12], the system named is Streptococcus pneumoniae IMC B-1229 (PSSP). Put plainly: Antimicrobial activity test (MIC), clinical isolate IMC B-1229. It is filed as cell-based. The method, then: as §1, §2
The test system of experiment [13] is penicillin-resistant Streptococcus pneumoniae (PRSP). Briefly: Anti-PRSP activity, overall statements on the clinical isolates. It is filed as cell-based. The conditions noted are these: statement in words. The method, then:
as §1, §2
For the compounds of the present invention, MKT-1011, MKT-2003, MKT-3002 and MKT-3003, the antimicrobial activity was measured in the same way as in Experimental Example 1.

[14] abbreviates: Streptococcus pneumoniae IMC B-0919, PRSP.
The mark [15] stands for this setting: PRSP clinical isolate IMC B-0920.
Where [16] appears, read: Streptococcus pneumoniae IMC B-0920, PRSP.
Where [17] appears, read: Streptococcus pneumoniae IMC B-0922, PRSP.
Where [18] appears, read: Streptococcus pneumoniae IMC B-1231, PRSP.
Setting [19] is: Streptococcus pneumoniae IMC B-1234, PRSP.
[20] abbreviates: PRSP clinical isolate IMC B-1235.
Where [21] appears, read: Streptococcus pneumoniae IMC B-1235, PRSP.
[22] abbreviates: PRSP clinical isolate IMC B-1236.
The mark [23] stands for this setting: Streptococcus pneumoniae IMC B-1236, PRSP.

The structures appear in SMILES notation. ≈ marks a conversion by molar mass, not a printed value. Where “and” joins values, the source holds several entries; their conditions need not be identical. Equal values may be shown once.

With `CC[C@H]1OC(=O)CC[C@H](C)[C@@H](O[C@@H]2O[C@H](C)C[C@H](N(C)C)[C@H]2O)[C@@H](CC=O)C[C@@H](C)C(=O)/C=C/C(C)=C/[C@@H]1CO` [DDMT, 3,4′-dideoxymycaminosyltylonolide, reference compound], the MIC in experiment [1] (setting [14]) was 0.39 mg/L and 0.20 mg/L; in experiment [2] (setting [15]), 0.2 mg/L and 0.39 mg/L and 0.20 mg/L; in experiment [2] (setting [16]), 0.39 mg/L (≈ 0.689 µM); in experiment [3] (setting [17]), 0.39 mg/L and 0.20 mg/L; in [4] (setting [18]) it was >50 mg/L and 50 mg/L; in experiment [5] (setting [19]), 0.20 mg/L and 0.39 mg/L and 0.2 mg/L. The MIC in [6] (setting [20]) was >50 mg/L and 50 mg/L and 25 mg/L; in experiment [6] (setting [21]), >50 mg/L and 50 mg/L; in experiment [7] (setting [22]) it was >50 mg/L and 50 mg/L and 25 mg/L; in experiment [7] (setting [23]), 50 mg/L and >50 mg/L. Moreover, in experiment [8], the antimicrobial effect entry is reported as “excellent antimicrobial effect”.
Turning to `CCC1OC(=O)CCC(C)C(OC2OC(C)CC(N(C)C)C2O)C(CC=O)CC(C)C(=O)C=CC(C)=CC1CN(C)Cc1ccccc1` (stereo not shown) [MKT-3002], the MIC in experiment [1] (PRSP clinical isolate IMC B-0919) worked out at 0.1 mg/L (≈ 0.149 µM); in experiment [1] (setting [14]), 0.1 mg/L (≈ 0.149 µM); in experiment [2] (setting [15]), 0.2 mg/L (≈ 0.299 µM); in experiment [2] (setting [16]) it was 0.2 mg/L (≈ 0.299 µM); in experiment [3] (PRSP clinical isolate IMC B-0922), 0.1 mg/L (≈ 0.149 µM); in experiment [3] (setting [17]), 0.1 mg/L (≈ 0.149 µM). In addition, the MIC in [4] (PRSP clinical isolate IMC B-1231) was 50 mg/L (≈ 74.7 µM); in experiment [4] (setting [18]), 50 mg/L (≈ 74.7 µM); in experiment [9] (PRSP clinical isolate IMC B-1232) it was <0.025 mg/L; in experiment [9] (Streptococcus pneumoniae IMC B-1232, PRSP) it was <0.025 mg/L; in [10] (PRSP clinical isolate IMC B-1233) it was 0.1 mg/L (≈ 0.149 µM); in experiment [10] (Streptococcus pneumoniae IMC B-1233, PRSP), 0.1 mg/L (≈ 0.149 µM). Further, the MIC in [5] (PRSP clinical isolate IMC B-1234) is <0.1 mg/L; in experiment [5] (setting [19]) it was <0.1 mg/L; in experiment [6] (setting [20]), 3.13 mg/L (≈ 4.68 µM); in experiment [6] (setting [21]) it was 3.13 mg/L (≈ 4.68 µM); in experiment [7] (setting [22]), 3.13 mg/L (≈ 4.68 µM); in [7] (setting [23]), 3.13 mg/L (≈ 4.68 µM). Moreover, the MIC in experiment [11] (PSSP clinical isolate IMC B-0921) turned out to be 0.1 mg/L (≈ 0.149 µM); in experiment [11] (Streptococcus pneumoniae IMC B-0921, PSSP) it was 0.1 mg/L (≈ 0.149 µM); in [12] (PSSP clinical isolate IMC B-1229), 0.1 mg/L (≈ 0.149 µM); in experiment [12] (Streptococcus pneumoniae IMC B-1229, PSSP), 0.1 mg/L (≈ 0.149 µM). Moreover, the anti-PRSP activity entry in experiment [13] is “high anti-PRSP activity”.
